According to US20260275242A1, “PHOSPHONATE-FREE CHELATING AGENTS AND METHODS FOR FABRIC CARE” (THE PROCTER & GAMBLE COMPANY, priority 2023, published 2026):

Tests used:
Assay type in all cases: physicochemical
[1] = Calcium binding efficiency, logK(β110) (Table 1); details: one metal, one ligand, no protons
Source text: (§1) The binding efficiencies may be expressed as a binding constant. A binding constant (also called formation constant or stability constant) is an equilibrium constant for the formation of a complex in solution. It is a measure of the strength of the interaction between the reagents that come together to form the complex. As an example, various stains may comprise catechins as shown in Formula (13).
(§2) In Table 1, the reaction between metals and ligands is described in terms of log K(β110). In this context, K, is the equilibrium constant for the reaction between ligands and metals. The higher K, the more metal is bound. This is illustrated in the following example.
(§3) β, represents the binding efficiency and receives some subscripts (βmlh) to indicate how many metals (m), ligands (l), and protons (h) respectively are involved.

[2] = pKa of chelating agents (Table 1); details: successive pKa values; (A)/(B) printed beside the catechin values
Source text: Chelation is a type of bonding of ions and molecules to metal ions. It involves the formation or presence of two or more separate coordinate bonds between a ligand and a metal atom. Without being bound by theory, the stain removal effectiveness of a composition comprising one or more chelating agents may depend at least in part on the ability of the chelating agent(s) to bind to iron, which may be present in some stains, such as fruit or beverage stains. Several factors may impact a chelating agent's ability to bind to iron. These factors may include the pKa of the chelating agent compared to the wash pH, and the affinity of the chelating agent to bind with other metals, materials, or compositions in the wash.
Various embodiments may provide or employ a composition that comprises one or more chelating agents having a pKa that is near to or less than the wash pH. […] Various embodiments may also employ a wash liquor pH of about 10 or less, about 9.5 or less, less than about 9, preferably from about 6.5 to about 8.5, most preferably from about 7.0 to about 8.5. They may also include the step of maintaining the pH of the wash liquor at about 10 or less, about 9.5 or less, less than about 9, preferably from about 6.5 to about 8.5, most preferably from about 7.0 to about 8.5.

[3] = Iron binding efficiency, logK(β110) (Table 1); details: one metal, one ligand, no protons
Source text: as §1, §2, §3

SMILES	Ca^2+ logK(β110) [1]	pKa [2]	Fe (III) logK(β110) [3]
CCOC(=O)c1cc(O)c(O)c(O)c1 [Ethyl Gallate]	6.7	8.7	14.7
COC(=O)c1cc(O)c(O)c(O)c1 [Methyl Gallate]	6.7	8.7	14.7
